In patent US11865176B2, “Compositions and methods of modulating anti-tumor immunity” (Dana-Farber Cancer Institute, Inc., priority 2016, dated 2024):

Experiments:
[1] = molecular target: T1, regulatory domain of human NFATc3 (residues 1-400) (UniProt Q12968)
T1 sequence: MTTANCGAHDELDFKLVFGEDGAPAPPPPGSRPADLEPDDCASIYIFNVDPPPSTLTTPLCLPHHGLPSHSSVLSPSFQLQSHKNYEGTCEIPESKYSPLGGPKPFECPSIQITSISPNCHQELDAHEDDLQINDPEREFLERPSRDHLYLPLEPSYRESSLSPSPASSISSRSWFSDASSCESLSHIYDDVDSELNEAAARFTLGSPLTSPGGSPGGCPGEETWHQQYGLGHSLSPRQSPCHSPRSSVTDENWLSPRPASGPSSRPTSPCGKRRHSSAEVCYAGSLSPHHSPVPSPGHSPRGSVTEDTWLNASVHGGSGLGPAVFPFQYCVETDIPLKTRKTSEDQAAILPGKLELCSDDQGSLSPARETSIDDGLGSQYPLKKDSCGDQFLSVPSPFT

[2] = tested on: PD-1-overexpressing Jurkat cells; assay: Small molecule screen: IL2 secretion (AlphaLISA) from stimulated PD-1-overexpressing Jurkat cells; assay type: cell-based, human; conditions: 3.3 μM compound; for Zscore_1 / Zscore_2: IL2 level, α-CD3/α-CD28/α-PD-1 beads; for Zscore_1: replicate 1; for Zscore_2: replicate 2; for Zscore_AVG: average of replicate Z scores
How it was run: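 Cells (100,000/well) with compound at 3.3 μM final, stimulated by α-CD3/α-CD28/α-PD-1 Dynabeads at an 8:1 bead:cell ratio. IL2 in supernatants measured by AlphaLISA. Hits scored ≥3 SD from the mean of DMSO-treated, α-PD-1-bead-stimulated controls.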

Compound	in vitro phosphorylation of 15N-labeled NFATc3 (1-400), followed by 2D 15N-HSQC NMR [1]	Zscore_1 [2]	Zscore_2 [2]	Zscore_AVG [2]
recombinant CDK4/cyclin D1	However, this did not occur when NFAT4 was incubated with CDK4	–	–	–
COc1cc2ncnc(Nc3ccc(NC(=O)c4ccccc4)cc3)c2cc1OC [Aurora Kinase Inhibitor II]	–	−0.6024	2.958	1.178
COc1ccc(Cl)cc1NC(=O)Nc1cc(C)nc2ccccc12 [IGF-1R Inhibitor II]	–	0.516	−0.987	−0.2355
N#Cc1c(C2CCNCC2)cc(-c2c(O)cccc2OCC2CC2)nc1N [IKK-2 Inhibitor VIII]	–	−0.6795	−0.365	−0.5222
Cdk Inhibitor, p35	–	−1.994	−1.733	−1.864
Polo-like Kinase Inhibitor I	–	−0.8886	0.6237	−0.1325
CCCCc1c(-c2ccc(OC)cc2)[nH]c2nccnc12 [Aloisine, RP106]	–	−0.8722	−4.242	−2.557
COc1cc2ncnc(Nc3ccc(OCc4ccccc4)cc3)c2cc1OC [EGFR/ErbB-2 Inhibitor]	–	0.09156	4.015	2.053
Cn1sc(=O)n(Cc2ccccc2)c1=O [GSK-3b Inhibitor I]	–	−1.327	−2.222	−1.774
CC(C)(C)c1ccc(S(=O)(=O)Nc2ccc(-n3ccnc3)cc2)cc1 [Stem-Cell Factor/c-Kit Inhibitor, ISCK03]	–	−0.9751	−0.07435	−0.5247
CC[n+]1c(/C=C/N(C)c2ccccc2)n(-c2ccccc2)c2ccc(-c3nc4ccccc4s3)cc21.[I-] [Akt Inhibitor IV]	–	−5.269	−6.844	−6.057
VEGFR Tyrosine Kinase Inhibitor IV	–	−0.8723	−2.305	−1.589
O=C(O)C=Cc1cc(Br)c(Br)c(Br)c1Br [Casein Kinase II Inhibitor III, TBCA]	–	1.017	1.548	1.282
O=C1Cc2c([nH]c3ccc([N+](=O)[O-])cc23)-c2ccccc2N1 [Alsterpaullone]	–	−0.7783	−3.341	−2.06
O=C(NC(NC(=S)Nc1ccc(F)c([N+](=O)[O-])c1)C(Cl)(Cl)Cl)C(c1ccccc1)c1ccccc1 (stereo not shown) [ATM/ATR Kinase Inhibitor]	–	−1.798	−1.073	−1.436
NCCNc1ncc(C(N)=O)c(Nc2cccc(C(F)(F)F)c2)n1 [Syk Inhibitor II]	–	−0.7866	−0.6851	−0.7358
CN(C)c1ccc(/C=C2\C(=O)Nc3ccccc32)cc1 [DMBI]	–	−0.2169	0.4405	0.1118
Cc1cc(Nc2nc(-c3ccccc3)nc3ccccc23)n[nH]1 [GSK-3 Inhibitor XIII]	–	−2.535	−3.925	−3.23
Cc1cc(C)c(/C=C2\C(=O)Nc3ccccc32)[nH]1 [VEGF Receptor 2 Kinase Inhibitor III]	–	−0.2089	−2.04	−1.124
NC(=O)c1ccc(-c2nc(-c3ccc4c(c3)OCCO4)c(-c3ccccn3)[nH]2)cc1 [Casein Kinase I Inhibitor, D4476]	–	−1.219	1.296	0.03862
N#Cc1cnc2cnc(NCc3cccnc3)cc2c1Nc1ccc(F)c(Cl)c1 [Tpl2 Kinase Inhibitor]	–	−2.9	−5.972	−4.436

Compound	in vitro phosphorylation of 15N-labeled NFATc3 (1-400), followed by 2D 15N-HSQC NMR [1]	Zscore_1 [2]	Zscore_2 [2]	Zscore_AVG [2]
COc1ccc2c(c[n+](C)c3c4cc5c(cc4ccc23)OCO5)c1OC [Chelerythrine Chloride]	–	0.1826	0.07537	0.129
O=S(=O)(c1c(O)c(Cl)cc(Cl)c1Cl)c1c(O)c(Cl)cc(Cl)c1Cl [p38 MAP Kinase Inhibitor IV]	–	−0.6495	0.005311	−0.3221
N#C/C(=C(/N)Sc1ccc(N)cc1)c1ccccc1C(F)(F)F [MEK 1/2 Inhibitor]	–	−4.769	−6.395	−5.582
MEK1/2 Inhibitor II	–	−8.274	−7.766	−8.02
CC#CC(=O)Nc1cc2c(Nc3ccc(F)c(Cl)c3)ncnc2cn1 [EGFR/ErbB-2/ErbB-4 Inhibitor]	–	0.4572	0.3338	0.3955
NC(=O)c1cccc(-c2cc(Nc3ccc(OC(F)(F)F)cc3)ncn2)c1 [Bcr-abl Inhibitor]	–	1.402	5.274	3.338
CN[C@@H]1C[C@H]2O[C@@](C)([C@@H]1OC)n1c3ccccc3c3c4c(c5c6ccccc6n2c5c31)C(=O)N[C@@H]4O [UCN-01]	–	−7.46	−8.298	−7.879
IKK-2 Inhibitor XI	–	−4.485	−6.012	−5.248
CN1C(=O)C(Cc2c[nH]c3ccccc23)NC1=S (stereo not shown) [Necrostatin-1]	–	−1.566	1.447	−0.05934
Cc1cc(C=C2C(=O)C=CC2=O)cc(C)c1O [TX-1918]	–	−0.9736	−2.336	−1.655
Cc1ccc([N+](=O)[O-])cc1S(=O)(=O)N(C)/N=C/c1cnc2ccc(Br)cn12.Cl [PI 3-Kα Inhibitor VIII]	–	−7.658	−10.33	−8.993
Staurosporine, N-benzoyl-	–	−5.987	−7.072	−6.529
CC(C)[C@H](CO)Nc1nc(Nc2cc(N)cc(Cl)c2)c2ncn(C(C)C)c2n1 [Aminopurvalanol A]	–	−3.687	−3.638	−3.662
COC(=O)[C@@]1(O)C[C@H]2O[C@]1(C)n1c3ccccc3c3c4c(c5c6ccccc6n2c5c31)C(=O)NC4 [K-252a, Nocardiopsis sp.]	–	−4.42	−6.58	−5.5
O=C1NC(=O)c2c1c(-c1ccccc1Cl)cc1[nH]c3ccc(O)cc3c21 [Wee1 Inhibitor]	–	−0.6621	−2.209	−1.436
PIM1/2 Kinase Inhibitor V	–	−0.917	0.2008	−0.3581
O=C(CCCc1ccc(-c2ccccc2F)cc1)Nc1ccc(O)cc1 [MK2a Inhibitor]	–	−1.455	−2.305	−1.88
O=C1Nc2ccccc2/C1=C\c1c(Cl)[nH]c2ccccc12 [Cdk1 Inhibitor]	–	−0.7783	−0.6137	−0.696
COc1cc(SC)ccc1C(=O)N1CCC(Cc2ccccc2)CC1 [p38 MAP Kinase Inhibitor VI, JX401]	–	−0.3753	−0.9241	−0.6497
Nc1ccc(-c2cccc3c(=O)cc(N4CCOCC4)oc23)cc1 [LY 294002,4-NH2]	–	3.33	7.54	5.435
